Results taken from patent US7732596B2, “Fused heterocycle derivative, medicinal composition containing the same, and medicinal use thereof” (Kissei Pharmaceutical Co., Ltd., priority 2004, dated 2010).

Tests used:
[1] = target: T1, human SGLT2 (Homo sapiens, UniProt P31639); assay: Assay for inhibitory effects on human SGLT2 activity (uptake of methyl-α-D-glucopyranoside in CS2-5E cells); type: cell-based; conditions: CHO-K1 cells stably expressing human SGLT2 (CS2-5E), 1 mM 14C-α-MG uptake, 37° C., 1 hour
T1 construct: expressed in transfected cells
T1 sequence (P31639 1-672): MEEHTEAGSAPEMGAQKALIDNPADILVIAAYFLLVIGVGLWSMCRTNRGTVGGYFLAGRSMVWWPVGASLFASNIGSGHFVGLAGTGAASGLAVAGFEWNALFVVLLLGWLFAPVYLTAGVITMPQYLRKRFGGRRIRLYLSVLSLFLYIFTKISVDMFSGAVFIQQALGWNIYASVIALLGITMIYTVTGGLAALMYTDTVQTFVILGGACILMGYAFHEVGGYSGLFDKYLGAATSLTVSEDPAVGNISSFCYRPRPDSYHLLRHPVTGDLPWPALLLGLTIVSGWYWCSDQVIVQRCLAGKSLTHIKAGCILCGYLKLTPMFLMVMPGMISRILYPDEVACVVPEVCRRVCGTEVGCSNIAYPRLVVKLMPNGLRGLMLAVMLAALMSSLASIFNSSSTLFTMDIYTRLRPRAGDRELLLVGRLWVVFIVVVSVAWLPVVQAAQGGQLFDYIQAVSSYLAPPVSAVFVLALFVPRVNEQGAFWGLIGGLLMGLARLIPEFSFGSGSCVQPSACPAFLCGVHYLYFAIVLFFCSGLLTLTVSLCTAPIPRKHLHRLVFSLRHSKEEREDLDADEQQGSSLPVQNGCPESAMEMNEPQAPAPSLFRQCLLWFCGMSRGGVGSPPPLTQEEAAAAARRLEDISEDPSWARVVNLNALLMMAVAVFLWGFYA
Protocol: Assay for Inhibitory Effects on Human SGLT2 Activity 1) Cloning and Construction of the Vector Expressing Human SGLT2 The cDNA library was prepared for PCR amplification by reverse transcription from total RNA deprived from human kidney (Ori gene) using oligo-dT as a primer. Using this cDNA library as a template, the DNA fragment coding 2 to 2039 bp of human SGLT2 (ACCESSION: M95549, M95299), which was reported by R. G. Wells et al., was amplified by PCR method and inserted into the multi-cloning site of pcDNA3.1 (−) (Invitrogen). The DNA sequence inserted was perfectly matched to the previously reported sequence. 2) Establishment of Cell Line Stably Expressing Human SGLT2 The expression vector of human SGLT2 was digested by Sca I into a linear DNA. The linear DNA was transfected into CHO-K1 cells by means of lipofection (Effectene Transfection Reagent: QIAGEN). Neomycin resistant cell lines were selected by culture in the medium containing G418 (1 mg/mL, LIFE TECHNOLOGIES), and then the activity against the uptake of methyl-α-D-glucopyranoside was measured by the method described below. […] CS2-5E cells were cultured in the presence of G418 at 200 μg/mL. 3) Measurement of the Inhibitory Activity Against the Uptake of Methyl-α-D-glucopyranoside (α-MG) CS2-5E cells were seeded into a 96-well culture plate at a density of 3×10^4 cells/well and cultured for 2 days, and were used in the uptake assay. A mixture of non-labeled (Sigma) and ^14C-labeled α-MG (Amersham Pharmacia Biotech) was added to the uptake buffer (pH 7.4; containing 140 mM sodium chloride, 2 mM potassium chloride, 1 mM calcium chloride, 1 mM magnesium chloride, […] and 5 mM tris(hydroxymethyl)aminomethane) at the final concentration of 1 mM. […] Radioactivity was measured by means of micro-scintillation counter TopCount (Packard). One hundred % was set to the difference between the uptake in the control group and the basal uptake, and the uptake of methyl α-D-glucopyranoside at each drug concentration were calculated. […]

[2] = target: T2, human SGLT1 (Homo sapiens, UniProt P13866); assay: Assay for inhibitory effects on human SGLT1 activity (uptake of methyl-α-D-glucopyranoside in CS1-5-11D cells); type: cell-based; conditions: CHO-K1 cells stably expressing human SGLT1 (CS1-5-11D), 1 mM 14C-α-MG uptake, 37° C., 1 hour
T2 construct: expressed in transfected cells
T2 sequence (P13866 1-664): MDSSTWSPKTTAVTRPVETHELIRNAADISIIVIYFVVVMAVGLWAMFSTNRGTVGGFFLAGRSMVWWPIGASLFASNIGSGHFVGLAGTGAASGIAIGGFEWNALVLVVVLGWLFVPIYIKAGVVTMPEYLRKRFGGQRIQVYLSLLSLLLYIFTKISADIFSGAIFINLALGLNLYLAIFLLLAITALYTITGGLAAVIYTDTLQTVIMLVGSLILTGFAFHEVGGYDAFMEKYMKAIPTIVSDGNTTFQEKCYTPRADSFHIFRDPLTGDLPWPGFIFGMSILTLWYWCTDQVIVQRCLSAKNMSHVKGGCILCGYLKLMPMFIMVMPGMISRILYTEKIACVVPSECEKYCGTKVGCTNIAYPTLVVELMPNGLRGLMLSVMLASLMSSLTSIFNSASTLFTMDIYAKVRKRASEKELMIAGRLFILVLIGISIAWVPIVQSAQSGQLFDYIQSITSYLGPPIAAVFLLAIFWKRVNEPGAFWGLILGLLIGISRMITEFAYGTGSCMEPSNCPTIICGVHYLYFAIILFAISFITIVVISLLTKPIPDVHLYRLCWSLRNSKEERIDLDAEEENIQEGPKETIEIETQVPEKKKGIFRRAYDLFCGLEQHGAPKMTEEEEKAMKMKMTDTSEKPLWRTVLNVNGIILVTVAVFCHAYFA
Protocol: Assay for Inhibitory Effects on Human SGLT1 Activity
1) Cloning and Construction of the Vector Expressing Human SGLT1
The cDNA library was prepared for PCR amplification by reverse transcription from total RNA deprived from human small intestine (Ori gene) using oligo-dT as a primer. Using this cDNA library as a template, the DNA fragment coding 1 to 2005 bp of human SGLT1 (ACCESSION: M24847), which was reported by Hediger et al., was amplified by PCR method and inserted into the multi-cloning site of pcDNA3.1 (−) (Invitrogen). The DNA sequence inserted was perfectly matched to the previously reported sequence.
2) Establishment of Cell Line Stably Expressing Human SGLT1
The expression vector of human SGLT1 was digested by Sca I into a linear DNA. The linear DNA was transfected into CHO-K1 cells by means of lipofection (Effectene Transfection Reagent: QIAGEN). Neomycin resistant cell lines were selected by culture in the medium containing G418 (1 mg/mL, LIFE TECHNOLOGIES), and then the activity against the uptake of methyl-α-D-glucopyranoside was measured by the method described below. […] CS1-5-11D cells were cultured in the presence of G418 at 200 μg/mL. […]
CS1-5-11D cells were seeded into a 96-well culture plate at a density of 3×10^4 cells/well and cultured for 2 days, and were used in the uptake assay. […] Radioactivity was measured by means of micro-scintillation counter TopCount (Packard). […]

Row | IC50 [1] | IC50 [2] | Compound
1 | 58 nM | 220 nM | OC[C@H]1O[C@@H](c2cc3c(CCc4ccccc4)cccc3s2)[C@H](O)[C@@H](O)[C@@H]1O [Example 1, 2-(β-D-Glucopyranosyl)-4-(2-phenylethyl)benzo[b]thiophene]
2 | 130 nM |  | OC[C@H]1O[C@@H](c2cc3cccc(CCc4ccccc4)c3s2)[C@H](O)[C@@H](O)[C@@H]1O [Example 2, 2-(β-D-Glucopyranosyl)-7-(2-phenylethyl)benzo[b]thiophene]
3 | 2 nM |  | Cc1ccc(Cc2cccc3cc([C@@H]4O[C@H](CO)[C@@H](O)[C@H](O)[C@H]4O)sc23)cc1 [Example 3, 2-(β-D-Glucopyranosyl)-7-(4-methylbenzyl)benzo[b]thiophene]
